Values of other authors in patent US20080306069A1, “Pyrazole Derivatives for the Inhibition of CDK'S and GSK'S” (ASTEX THERAPEUTICS LIMITED, priority 2005, published 2008).

System: malignant cells from B-cell chronic lymphocytic leukemia (B-CLL)
Settings: in vitro

Structure (SMILES)	apoptosis of malignant B-CLL cells
CN1CC[C@H](c2c(O)cc(O)c3c(=O)cc(-c4ccccc4Cl)oc23)[C@H](O)C1 [Flavopiridol, flavopiridol]	induce in vitro apoptosis
CC[C@H](CO)Nc1nc(NCc2ccccc2)c2ncn(C(C)C)c2n1 [CYC 202]	induce in vitro apoptosis
